Measured values reported in patent US12473332B2, “Modified peptides and associated methods of use” (Advanced Technologies For Novel Therapeutics, LLC, priority 2019, dated 2025).
Where no end group is shown, it is not given here.

Experiments:
[1] = trypan blue staining, live and dead cell count; assay type: cell-based; conditions: 12 to 72 hours
Source text: Therefore, in addition to capturing live images, cells were stained with trypan blue at different time intervals following treatment with ZaTa and counted by a light microscope using a hemocytometer.

p70S6K = target: T1, p70S6K (Homo sapiens, UniProt P23443); assay: cell-based kinase assay, phosphorylation of intracellular substrates
T1 construct: phosphorylation levels of well-known intracellular substrates for each kinase; endogenous in cells
Description: (§1) To test the specificity/selectivity of ZaTa as the inhibitor of AKT1 versus the other major kinases, a series of in vitro kinase assays was performed at IC50 for AKT1 and at ten times higher concentrations. A panel of the following 32 kinases was first tested in vitro using the active form of each kinase and a specific substrate: AKT2, AKT3, PKA, PKCα, PKCγ, PI3Kβ, PI3Kδ, PI3Kγ, SGK, PAK2, PAK3, SAPK2/p38, Abl, CaMKII, CDK1/cyclinB, CDK5/p35, CK1, CK2, CSK, GSK3α, GSK3β, JNK1α1, MAPK1, p70S6K, PDGFRα, PDGFRβ, PDK1, PKG1α, TrkB, JAK2, JAK3, and Syk. […] However, at ten times higher concentration, ZaTa inhibited AKT2 (63%), PI3Kδ (72%), p70S6K (64%), SGK (73%), PAK3 (83%), JAK3 (79%), TrkB (84%), and Abl (42%). To confirm the in vitro inhibitory effect on these kinases in cells, a cell-based assay was used to determine the effect of labeled ZaTa on the phosphorylation levels of well-known intracellular substrates for each kinase (Zipfel, et al. (2004) Curr. Biol. 14:1222-1231; Wang, et al. (2003) Arch. Biochem. Biophys. 410:7-15; King, et al. (1998) Nature 396:180-183; Rangone, et al. (2004)Eur. J. Neurosci. 19:273-279; Middlemas, et al. (1994)J. Biol. Chem. 269:5458-5466; Huang, et al. (1999) J. Biol. Chem. 274:7870-7878). The results of this cell-based kinase assay confirmed that ZaTa could inhibit p70S6K besides AKT. […]

PKAc = PKAc (Homo sapiens, UniProt P17612); assay: independent kinase assays on PKAc catalytic activity; assay type: biochemical
AKT [2] = target: AKT (Homo sapiens, UniProt P31749); assay: in vitro AKT kinase assay with Ser-9 GSK-3 GST fusion protein substrate; PKAc peptide library screen; assay type: biochemical; conditions: Ser-9 GSK-3 GST substrate
primary neurons = assay: TUNEL assay in primary cortical culture; assay type: cell-based; conditions: 1 μM or 5 μM, 72-hour treatment, vs control peptide
Description: It is now well-established that AKT protects against apoptosis through phosphorylation and inhibition of pro-apoptotic mediators such as BAD, FOXO family members and IKK-β (Datta, et al. (1999) Genes Dev. 13:2905-2927). […] Primary neurons were treated with DMSO, 1 μM or 5 μM of either ZaTa or the control peptide for a duration of 1, 3, 16, 24, 48 or 72 hours. The number of apoptotic cells was counted following the TUNEL assay. […] The increase in the number of apoptotic neurons following treatment with ZaTa was consistent with its potent intra-neuronal inhibition of AKT.

panel of 32 kinases = assay: in vitro kinase selectivity panel of 32 kinases; assay type: biochemical; conditions: at IC50 for AKT1 (0.1 μM)
Description: as §1

AKT-PKAc complex = target: T2, AKT-PKAc complex (Mus musculus, UniProt P31750); assay: AKT immunoprecipitation from striatum after stereotactic injection; assay type: in vivo, C57BL/6 mouse; conditions: ZaTa vs vehicle hemisphere
T2 construct: ZaTa could disrupt the physical complex between AKT and PKAc in vivo; from tissue; host or cells: mouse striatum
Description: (§2) The phenotypic consequence of disrupting the AKT-PKAc complex was also determined. ZaTa peptide was injected into the striatum of one hemisphere of the brain and DMSO, as vehicle, was injected into the other brain hemisphere of an adult C57BL/6 mouse under anesthesia. The brain was removed and dissected. Equal protein amounts from each hemisphere were subjected to immunoprecipitation by an anti-AKT antibody. […] To compare PKAc protein levels in the ZaTa- and vehicle-treated brain hemisphere lysates, western blot analysis was conducted.

N2a cells = assay: AKT-PKAc complex and neurite count in cultured N2a neurons; assay type: cell-based; conditions: 24 hours treatment
Description: Accordingly, the stability and phenotypic consequences of the AKT-PKAc complex was also analyzed in cultured neurons. N2a cells were treated with vehicle, ZaTa or control peptide for 24 hours. Media was removed after the 24-hour treatment and an equal number of cells from each treatment group was either cultured for another 24 hours without treatment, or lysed and subjected to immunoprecipitation with an antibody against AKT. Those cells cultured for another 24 hours were also harvested and subjected to immunoprecipitation. In parallel, the number of individual neurons with neurites was counted. […] Live images of N2a neurons were captured following treatment with vehicle or ZaTa (2 or 5 μM). […] ZaTa-mediated changes included a progressive loss of neurites, inhibition of new neurite formation, loss of cell motility, as well as formation of large cell colonies.

AKT [3] = target: T3, AKT (Mus musculus, UniProt P31750); assay: stereotactic injection into brain striatum, phosphorylation of AKT substrates; assay type: in vivo; conditions: vs DMSO hemisphere
T3 construct: from tissue; host or cells: brain striatum, in vivo
Description: After the stereotactic injection of ZaTa peptide, a decrease in the phosphorylation level of AKT substrates in the striatum of a brain hemisphere was observed as compared to the other hemisphere that was injected with DMSO as the vehicle. […] As a specific substrate, the phosphorylation level of GSK-3β at Ser-9 was also evaluated. […] The decrease was specific to the AKT phosphorylation site on GSK-3β at Ser-9, since a change in the phosphorylation level of GSK-3β at Tyr-216 or GSK-3α at Tyr-279 was not observed. Moreover, the in vivo reduction of the phosphorylation of AKT substrates was more obvious at the injection site, since a significant change in the phosphorylation of AKT substrates in the frontal cortex or cerebellum between the two hemispheres was not observed.
as §2

AKT (Homo sapiens, UniProt P31749), sequence (P31749 whole entry, the tested form may be a part): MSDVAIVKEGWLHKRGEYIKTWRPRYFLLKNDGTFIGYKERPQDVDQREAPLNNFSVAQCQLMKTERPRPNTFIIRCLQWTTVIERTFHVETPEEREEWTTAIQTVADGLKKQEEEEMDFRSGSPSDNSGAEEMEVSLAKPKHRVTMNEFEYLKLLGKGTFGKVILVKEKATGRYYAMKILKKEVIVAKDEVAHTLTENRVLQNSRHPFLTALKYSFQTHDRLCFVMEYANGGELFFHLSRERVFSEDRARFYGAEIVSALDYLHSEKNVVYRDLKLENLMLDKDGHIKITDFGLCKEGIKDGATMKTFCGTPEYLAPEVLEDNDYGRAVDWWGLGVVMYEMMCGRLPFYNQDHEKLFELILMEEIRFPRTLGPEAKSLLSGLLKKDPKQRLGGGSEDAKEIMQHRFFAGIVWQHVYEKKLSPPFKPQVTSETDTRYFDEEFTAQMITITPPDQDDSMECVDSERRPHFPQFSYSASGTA
T3 sequence (P31750 whole entry): as the sequence (P31749 whole entry, the tested form may be a part) above, with S2N, A50S, T100A, K112R, E117T, K389T, G410N, H415D counted along it
T1 sequence (P23443 whole entry): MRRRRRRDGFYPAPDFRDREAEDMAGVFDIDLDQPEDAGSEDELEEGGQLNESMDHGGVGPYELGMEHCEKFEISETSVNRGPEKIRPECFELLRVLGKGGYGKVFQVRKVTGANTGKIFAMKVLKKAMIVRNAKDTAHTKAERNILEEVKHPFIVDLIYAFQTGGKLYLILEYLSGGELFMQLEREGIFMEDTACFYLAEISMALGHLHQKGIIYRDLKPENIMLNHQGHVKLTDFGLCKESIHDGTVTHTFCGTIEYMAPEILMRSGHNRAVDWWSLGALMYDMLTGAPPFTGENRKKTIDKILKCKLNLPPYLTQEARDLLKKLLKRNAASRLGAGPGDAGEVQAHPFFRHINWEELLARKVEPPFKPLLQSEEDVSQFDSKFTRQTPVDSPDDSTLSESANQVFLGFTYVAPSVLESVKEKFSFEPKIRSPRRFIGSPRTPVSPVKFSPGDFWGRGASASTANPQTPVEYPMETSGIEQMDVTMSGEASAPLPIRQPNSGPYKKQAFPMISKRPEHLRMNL
T2 sequence (P31750 whole entry, one chain of several): as the sequence (P31749 whole entry, the tested form may be a part) above, with S2N, A50S, T100A, K112R, E117T, K389T, G410N, H415D counted along it

AKRVKGRTWTLCGTPEY [Peptide 53, A-K-R-V-K-G-R-T-W-T-L-C-G-T-P-E-Y]
number of dead cells [1]: a significant increase in the number of dead cells was not seen | inhibition of p70S6K in cells (p70S6K): could inhibit | inhibitory effect on catalytic activity of PKAc (PKAc): did not exhibit any inhibitory effect | inhibitory effect on catalytic activity of AKT (AKT [2]): significant inhibitory effects | inhibitory effect on catalytic activity of AKT (AKT [2]; listed as ZaTa): significantly reduced | number of TUNEL-positive cells (primary neurons): marked dose-dependent increase in the number of TUNEL-positive cells | inhibition of panel kinases (panel of 32 kinases): no significant inhibition | amount of PKAc in physical contact with AKT (AKT-PKAc complex): dramatically reduced | amount of PKAc in physical contact with AKT (N2a cells): reduced the amount of PKAc in physical contact with AKT | number of neurons with neurites (N2a cells): significant reduction in the number of neurons with neurites | phosphorylation level of AKT substrates in vivo (AKT [3]; one hour after stereotactic injection): significant decrease in the phosphorylation level of AKT substrates | phosphorylation level of GSK-3β at Ser-9 in vivo (AKT [3]; stereotactic injection): specific reduction
